Assay results taken from patent US20230348426A1, “OXOPYRROLIDINE FPR2 AGONISTS” (Bristol-Myers Squibb Company, priority 2020, published 2023).

Experiments:
human FPR2 = human FPR2 (Homo sapiens (Human), UniProt P25090); assay: FPR2 cyclic adenosine monophosphate (cAMP) assay; type: cell-based; details: CHO cells overexpressing human FPR2; forskolin 5 µM; inhibition of cAMP production; read-out: hFPR2 cAMP2 EC50
Summary of the method: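 CHO cells overexpressing human FPR2 (2,000/well) incubated 30 min at room temperature with compound (0.020 nM–100 µM, 1% DMSO), 5 µM forskolin and 200 µM IBMX.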

human FPR1 = human FPR1 (Homo sapiens (Human), UniProt P21462); assay: FPR1 cyclic adenosine monophosphate (cAMP) assay; type: cell-based; details: CHO cells overexpressing human FPR1; forskolin 10 µM; inhibition of cAMP production; read-out: hFPR1 cAMP EC50
Summary of the method: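 CHO cells overexpressing human FPR1 (4,000 cells/well) stimulated with 10 µM forskolin plus 200 µM IBMX in the presence of compound (0.020 nM–100 µM, 1% DMSO), 30 min at room temperature. Intracellular cAMP measured by HTRF. Inhibition of cAMP production fitted to a 4-parameter logistic equation.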

Chain of human FPR1 (P21462 whole entry): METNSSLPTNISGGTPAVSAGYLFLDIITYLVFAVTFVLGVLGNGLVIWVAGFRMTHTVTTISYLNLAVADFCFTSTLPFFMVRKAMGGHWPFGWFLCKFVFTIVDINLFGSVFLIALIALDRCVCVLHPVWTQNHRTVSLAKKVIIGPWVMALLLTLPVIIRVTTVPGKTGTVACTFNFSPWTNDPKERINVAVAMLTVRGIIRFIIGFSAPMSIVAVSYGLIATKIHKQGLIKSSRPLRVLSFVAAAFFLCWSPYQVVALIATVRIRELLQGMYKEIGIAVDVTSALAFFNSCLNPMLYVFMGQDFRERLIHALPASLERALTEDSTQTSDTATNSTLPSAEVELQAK
Chain of human FPR2 (P25090 whole entry): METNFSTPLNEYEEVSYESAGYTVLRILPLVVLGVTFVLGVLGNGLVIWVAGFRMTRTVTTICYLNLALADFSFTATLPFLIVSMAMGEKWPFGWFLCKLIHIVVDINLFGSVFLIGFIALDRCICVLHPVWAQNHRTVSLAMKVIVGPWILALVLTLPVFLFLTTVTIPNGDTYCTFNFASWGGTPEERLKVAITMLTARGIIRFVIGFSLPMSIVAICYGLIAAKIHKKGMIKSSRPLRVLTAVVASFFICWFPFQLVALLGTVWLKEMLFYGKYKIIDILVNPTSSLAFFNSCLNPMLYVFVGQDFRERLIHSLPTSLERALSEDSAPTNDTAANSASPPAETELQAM

Structure (SMILES)	EC50 (human FPR2) [nM]	EC50 (human FPR1) [nM]
CCn1cc2c(c(N3C[C@@H](c4c(F)cc(OC)cc4F)[C@H](NC(=O)c4ccc(OC(F)F)cc4)C3=O)c1=O)CCCC2 [Example 663]	1.1	1700
COc1ccc([C@@H]2CN(c3ccnn(CC(F)F)c3=O)C(=O)[C@H]2NC(=O)c2ccc(OC(F)F)cc2)c(F)c1 [Example 620]	7.4	6.5
COc1ccc([C@@H]2CN(c3c(C)ccn(CCC(F)(F)F)c3=O)C(=O)[C@H]2NC(=O)c2ccc(Cl)cc2)cc1 [Example 594]	2.4	1.4
COc1cc(F)c([C@@H]2CN(c3c(C)c4c(n(CCO)c3=O)CCCC4)C(=O)[C@H]2NC(=O)c2ccc(OC(F)F)cc2)c(F)c1 [Example 605]	< 5	1.9
COCC(CO)n1cccc(N2C[C@@H](c3c(F)cc(OC)cc3F)[C@H](NC(=O)c3ccc(OC(F)(F)F)cc3)C2=O)c1=O (stereo partly drawn) [Example 153]	4	4.2
COc1cc(N2C[C@@H](C)N(C)[C@@H](C)C2)nc(N2C[C@@H](c3c(F)cc(OC)cc3F)[C@H](NC(=O)c3ccc(Cl)cc3)C2=O)c1 [Example 180]	4.7	> 10000
COc1cc(F)c([C@@H]2CN(c3cccnc3P(C)(C)=O)C(=O)[C@H]2NC(=O)c2ccc(Cl)cc2)c(F)c1 [Example 305]	9.6	1300
COCC(CO)n1ccc(C)c(N2C[C@@H](c3ccc(OC)cc3)[C@H](NC(=O)c3ccc(OC(F)(F)F)cc3)C2=O)c1=O (stereo partly drawn) [Example 449]	3.5	0.2
COc1cc(F)c([C@@H]2CN(c3ccnn(CCC(F)(F)F)c3=O)C(=O)[C@H]2NC(=O)c2ccc(OC(F)F)cc2)c(F)c1 [Example 468]	2.1	18
COc1ccc([C@@H]2CN(c3cccn(CC(F)F)c3=O)C(=O)[C@H]2NC(=O)c2ccc(OC(F)F)cc2)cc1 [Example 91]	2.6	16
COc1cc(F)c([C@@H]2CN(c3nc(NC(C)=O)ccc3F)C(=O)[C@H]2NC(=O)c2ccc(OC(F)F)cc2)c(F)c1 [Example 146]	3.8	150
COc1cc(F)c([C@@H]2CN(c3cccn(CC(C)(CO)CO)c3=O)C(=O)[C@H]2NC(=O)c2ccc(OC(F)(F)F)cc2)c(F)c1 [Example 254]	7	52
COc1cc(F)c([C@@H]2CN(c3nccc(N4C[C@@H](C)N(C)[C@@H](C)C4)c3C(F)(F)F)C(=O)[C@H]2NC(=O)c2ccc(Cl)cc2)c(F)c1 [Example 181]	4.8	990
COc1ccc([C@@H]2CN(c3c(C)ccn(C4CCOC4)c3=O)C(=O)[C@H]2NC(=O)c2ccc(OC(F)(F)F)cc2)cc1 (stereo partly drawn) [Example 132]	3.4	0.8
COc1cc(F)c([C@@H]2CN(c3nc(N4C[C@H]5C[C@@H]4CO5)ccc3F)C(=O)[C@H]2NC(=O)c2ccc(OC(F)F)cc2)c(F)c1 [Example 256]	7.2	530
COc1ccc([C@@H]2CN(c3c(C)ccn(CCC(F)(F)F)c3=O)C(=O)[C@H]2NC(=O)c2ccc(Cl)cc2)c(F)c1 [Example 401]	3.7	7
COc1cc(F)c([C@H]2[C@H](NC(=O)c3ccc(OC(F)F)cc3)C(=O)N(c3cccc(C4CCN(CC(F)F)CC4)n3)[C@H]2C)c(F)c1 [Example 537]	9.9	35
COc1cc(F)c([C@@H]2CN(c3c(C)ccn(C4CCNC4)c3=O)C(=O)[C@H]2NC(=O)c2ccc(Cl)cc2)c(F)c1 (stereo partly drawn) [Example 530]	3.1	680
COc1cc(F)c([C@@H]2CN(c3c(C)ccn(C(F)(F)CO)c3=O)C(=O)[C@H]2NC(=O)c2ccc(OC(F)F)cc2)c(F)c1 [Example 454]	4.4	17
COc1ccc([C@@H]2CN(c3cccn(CC(O)C(F)(F)F)c3=O)C(=O)[C@H]2NC(=O)c2ccc(OC(F)F)cc2)cc1 (stereo partly drawn) [Example 643]	2.6	75
COc1ccc([C@@H]2CN(c3c(C)ccn(C(F)F)c3=O)C(=O)[C@H]2NC(=O)c2ccc(OC(F)F)cc2)cc1 [Example 384]	1.9	1
COCCOc1ncccc1N1C[C@@H](c2c(F)cc(OC)cc2F)[C@H](NC(=O)c2ccc(OC(F)F)cc2)C1=O [Example 412]	7.6	93
COc1cc(F)c([C@@H]2CN(c3nn(C4COC4)c(=O)cc3C)C(=O)[C@H]2NC(=O)c2ccc(OC(F)F)cc2)c(F)c1 [Example 628]	4.7	59
COCCn1cccc(N2C[C@@H](c3c(F)cc(OC)cc3F)[C@H](NC(=O)c3ccc(Cl)cc3)C2=O)c1=O [Example 137]	3.5	190
